Among the data in patent US6066672A, “Amino compounds and angiotensin IV receptor agonists” (Taisho Pharmaceutical Co., Ltd., priority 1996, dated 2000) are IC50 values, retold here.

Each structure is given as a SMILES string. pIC50: −log10 of the molar value. Counter-ions that a name gives are not always drawn.

This assay concerns the target T1, angiotensin IV receptor (Cavia porcellus, UniProt H0VNM7).
T1 construct: The Hartley guinea pig hippocampus was homogenized in a 50 mM Tris hydrochloride buffer solution; from tissue; host or cells: Hartley guinea pig hippocampus, crude membrane (48,000 x g precipitate)
T1 sequence (H0VNM7 1-1025): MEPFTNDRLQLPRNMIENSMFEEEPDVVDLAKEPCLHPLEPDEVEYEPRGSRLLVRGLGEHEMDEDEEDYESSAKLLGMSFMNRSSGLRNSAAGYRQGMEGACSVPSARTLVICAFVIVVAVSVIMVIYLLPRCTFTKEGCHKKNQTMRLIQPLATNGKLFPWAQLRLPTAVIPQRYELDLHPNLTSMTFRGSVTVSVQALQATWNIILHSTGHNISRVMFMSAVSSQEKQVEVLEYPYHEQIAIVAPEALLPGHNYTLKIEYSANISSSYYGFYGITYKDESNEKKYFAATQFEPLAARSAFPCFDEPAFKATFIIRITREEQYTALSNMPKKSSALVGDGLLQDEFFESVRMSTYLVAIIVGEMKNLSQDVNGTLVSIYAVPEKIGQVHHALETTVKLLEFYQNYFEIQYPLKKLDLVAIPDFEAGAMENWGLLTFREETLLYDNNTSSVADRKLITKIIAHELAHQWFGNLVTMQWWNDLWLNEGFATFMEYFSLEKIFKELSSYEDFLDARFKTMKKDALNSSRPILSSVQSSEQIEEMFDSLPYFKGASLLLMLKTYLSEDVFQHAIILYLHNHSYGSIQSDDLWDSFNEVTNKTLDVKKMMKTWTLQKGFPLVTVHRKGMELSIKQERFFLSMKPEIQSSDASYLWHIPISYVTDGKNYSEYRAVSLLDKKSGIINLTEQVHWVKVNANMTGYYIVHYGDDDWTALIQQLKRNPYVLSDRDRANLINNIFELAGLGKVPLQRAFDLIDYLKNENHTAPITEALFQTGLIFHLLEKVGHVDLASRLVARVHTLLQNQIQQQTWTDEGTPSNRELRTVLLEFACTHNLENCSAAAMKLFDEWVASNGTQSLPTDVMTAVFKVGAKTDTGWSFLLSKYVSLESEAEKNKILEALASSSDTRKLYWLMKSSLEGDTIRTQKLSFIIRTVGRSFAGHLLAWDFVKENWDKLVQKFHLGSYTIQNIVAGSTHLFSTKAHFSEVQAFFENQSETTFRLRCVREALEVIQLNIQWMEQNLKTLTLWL
Briefly: binding capability to angiotensin IV receptor, inhibition of 125I-angiotensin IV binding to guinea pig hippocampus membrane. The conditions noted are these: 0.2 nM 125I-angiotensin IV, Hartley guinea pig hippocampus crude membrane, 37° C., 90 minutes, pH 7.4. On the procedure: The binding capability to angiotensin IV receptor was measured by using Hartley guinea pig hippocampus referring to the method described by Miller-Wing et al., J. Pharmacol. Exp. Ther., vol. 266, pp.1718 (1993). The Hartley guinea pig hippocampus was homogenized in a 50 mM Tris hydrochloride buffer solution (pH 7.4) containing 1 mM ethylenediamine-N,N,N',N'-tetraacetic acid (EDTA) and 100 μM phenylmethanesulfonyl fluoride (PMSF). After centrifugation at 900× g, the resulting supernatant was further centrifuged at 48,000× g. The precipitate was washed once with the same buffer solution and suspended in 50 mM Tris hydrochloride buffer solution (pH 7.4) containing 150 mM sodium chloride, 1 mM EDTA, 100 μM PMSF and 0.1% bovine serum albumin (BSA) to give a protein concentration of […] as a crude membrane specimen. […] The radioactivity on the filter paper was measured by using a gamma-counter. The non-specific bond was measured in the presence of 1 μM angiotensin IV, and the specific bond was calculated by subtracting the non-specific bond from the total bond.
For `CCCC[C@H](N)CN[C@@H](Cc1ccc(O)cc1)C(=O)N[C@H](/C=C/c1ccc(C)cc1)[C@@H](C)CC` [Example 1, N'-[(S)-2-aminohexyl]-N-[(S)-(E)-3-(4-methylphenyl)-1-[(S)-1-methylpropyl]-2-propenyl]-L-tyrosinamide dihydrochloride], the pIC50 (as a rule, −log10 of the IC50, conventionally taken in molar units) was 9.23.

`CCCC[C@H](N)CN[C@@H](Cc1ccc(O)cc1)C(=O)N[C@H](CCc1ccc(C)cc1)[C@@H](C)CC` [Example 2, N'-[(S)-2-aminohexyl]-N-[(1R,2S)-2-methyl-1-[2-(4-methylphenyl)ethyl]butyl]-L-tyrosinamide dihydrochloride] showed a pIC50 of 8.38.

Take `CCC/C=C\[C@@H](NC(=O)[C@H](Cc1ccc(O)cc1)NC[C@@H](N)CCCC)[C@@H](C)CC` [Example 3, N'-[(S)-2-aminohexyl]-N-[(S)-(Z)-1-[(S)-1-methylpropyl]-2-hexenyl]-L-tyrosinamide dihydrochloride]: the pIC50 is 7.90.

On to `CCCCC[C@@H](NC(=O)[C@H](Cc1ccc(O)cc1)NC[C@@H](N)CCCC)[C@@H](C)CC` [Example 4, N'-[(S)-2-aminohexyl]-N-[(R)-1-[(S)-1-methylpropyl]hexyl]-L-tyrosinamide dihydrochloride], for which the pIC50 is 7.94.

In the case of `CCCC[C@H](N)CN[C@@H](Cc1ccc(O)cc1)C(=O)N[C@H](/C=C\Cc1ccccc1)CC(C)C` [Example 5, N'-[(S)-2-aminohexyl]-N-[(S)-(Z)-1-(2-methylpropyl)-4-phenyl-2-butenyl]-L-tyrosinamide dihydrochloride], the pIC50 is 8.14.

`CCCC[C@H](N)CN[C@@H](Cc1ccc(O)cc1)C(=O)N[C@H](CCCc1ccccc1)CC(C)C` [Example 6, N'-[(S)-2-aminohexyl]-N-[(R)-3-methyl-1-(3-phenylpropyl)butyl]-L-tyrosinamide dihydrochloride]: the pIC50 was 7.74.

In turn, `CCCC[C@H](N)CN[C@@H](Cc1ccc(O)cc1)C(=O)N[C@H](/C=C/c1ccncc1)CC(C)C` [Example 7, N'-[(S)-2-aminohexyl]-N-[(S)-(E)-1-(2-methylpropyl)-3-(4-pyridyl)-2-propenyl]-L-tyrosinamide trihydrochloride] showed a pIC50 of 9.03.

In the case of `CCCC[C@H](N)CN[C@@H](Cc1ccc(O)cc1)C(=O)N[C@H](CCc1ccncc1)CC(C)C` [Example 8, N'-[(S)-2-aminohexyl]-N-[(R)-3-methyl-1-[2-(4-pyridyl)ethyl]butyl]-L-tyrosinamide trihydrochloride], the pIC50 was 7.82.

`CCCC[C@H](N)CN[C@@H](Cc1ccc(O)cc1)C(=O)N[C@@H](/C=C/c1ccncc1)CC(C)C` [Example 9, N'-[(S)-2-aminohexyl]-N-[(R)-(E)-1-(2-methylpropyl)-3-(4-pyridyl)-2-propenyl]-L-tyrosinamide trihydrochloride] had a pIC50 of 7.66.

`CCCC[C@H](N)CN[C@@H](Cc1ccc(O)cc1)C(=O)N[C@@H](CCc1ccncc1)CC(C)C` [Example 10, N'-[(S)-2-aminohexyl]-N-[(S)-3-methyl-1-[2-(4-pyridyl)ethyl]butyl]-L-tyrosinamide trihydrochloride] showed a pIC50 of 7.09.

`CCCC[C@H](N)CN[C@@H](Cc1ccc(O)cc1)C(=O)N[C@H](/C=C/c1ccc(C(=O)OC)cc1)CC(C)C` [Example 11, N'-[(S)-2-aminohexyl]-N-[(S)-(E)-3-(4-methoxycarbonylphenyl)-1-(2-methylpropyl)-2-propenyl]-L-tyrosinamide dihydrochloride] gave a pIC50 of 8.91.

Consider `CCCC[C@H](N)CN[C@@H](Cc1ccc(O)cc1)C(=O)N[C@H](CCc1ccc(C(=O)OC)cc1)CC(C)C` [Example 12, N'-[(S)-2-aminohexyl]-N-[(R)-1-[2-(4-methoxycarbonylphenyl)ethyl]-3-methylbutyl]-L-tyrosinamide dihydrochloride], for which the negative logarithm of the IC50 (pIC50) was 7.45.
